Source: ChEMBL document CHEMBL3244131, “Synthesis of cephalosporin-4-aldehydes” (1977)
In brackets after ≈: the same amount, converted by molar mass.

Legend:
Type in all cases: functional
Staphylococcus aureus = experiment: Antimicrobial activity against Staphylococcus aureus ATCC 6538P by threefold dilution agar inclusion method
Streptococcus pyogenes = experiment: Antimicrobial activity against Streptococcus pyogenes ATCC 8668 by threefold dilution agar inclusion method
Escherichia coli = experiment: Antimicrobial activity against Escherichia coli ATCC 25922-1 by threefold dilution agar inclusion method
Klebsiella pneumoniae = experiment: Antimicrobial activity against Klebsiella pneumoniae ATCC 10031-2 by threefold dilution agar inclusion method
Proteus vulgaris = experiment: Antimicrobial activity against Proteus vulgaris ATCC 9484 by threefold dilution agar inclusion method

| SMILES | MIC (Staphylococcus aureus) | MIC (Streptococcus pyogenes) | MIC (Escherichia coli) | MIC (Klebsiella pneumoniae) | MIC (Proteus vulgaris) |
| --- | --- | --- | --- | --- | --- |
| CC(=O)OCC1=C(/C=N/NC(N)=O)N2C(=O)[C@@H](NC(=O)Cc3cccs3)[C@H]2SC1 | > 100 µg/mL | > 100 µg/mL | > 100 µg/mL | > 100 µg/mL | > 100 µg/mL |
| CC(=O)OCC1=C(C(=O)O)N2C(=O)[C@@H](NC(=O)Cc3cccs3)[C@H]2SC1 [CEPHALOTHIN] | 0.3 µg/mL (≈ 0.757 µM) | < 0.1 µg/mL | 30 µg/mL (≈ 75.7 µM) | 1 µg/mL (≈ 2.52 µM) | > 100 µg/mL |
| CC(=O)OCC1=C(C2OCCO2)N2C(=O)[C@@H](NC(=O)Cc3cccs3)[C@H]2SC1 | > 100 µg/mL | > 100 µg/mL | > 100 µg/mL | > 100 µg/mL | > 100 µg/mL |
| CC(=O)OCC1=C(/C=C/C(=O)[O-])N2C(=O)[C@@H](NC(=O)Cc3cccs3)[C@H]2SC1.[Na+] | > 100 µg/mL | > 100 µg/mL | > 100 µg/mL | > 100 µg/mL | > 100 µg/mL |

Now from value to compound:

| MIC (Staphylococcus aureus) | MIC (Streptococcus pyogenes) | MIC (Escherichia coli) | MIC (Klebsiella pneumoniae) | MIC (Proteus vulgaris) | SMILES |
| --- | --- | --- | --- | --- | --- |
| > 100 µg/mL | > 100 µg/mL | > 100 µg/mL | > 100 µg/mL | > 100 µg/mL | CC(=O)OCC1=C(/C=N/OCC(=O)O)N2C(=O)[C@@H](NC(=O)Cc3cccs3)[C@H]2SC1 |
| 30 µg/mL (≈ 78.9 µM) | 30 µg/mL (≈ 78.9 µM) | > 100 µg/mL | > 100 µg/mL | > 100 µg/mL | CC(=O)OCC1=C(C=O)N2C(=O)[C@@H](NC(=O)Cc3cccs3)[C@H]2SC1 |
| > 100 µg/mL | > 100 µg/mL | > 100 µg/mL | > 100 µg/mL | > 100 µg/mL | CC(=O)OCC1=C(/C=N/O)N2C(=O)[C@@H](NC(=O)Cc3cccs3)[C@H]2SC1 |
| > 100 µg/mL | > 100 µg/mL | > 100 µg/mL | > 100 µg/mL | > 100 µg/mL | CO/N=C/C1=C(COC(C)=O)CS[C@@H]2[C@H](NC(=O)Cc3cccs3)C(=O)N12 |
